Measured values: patent US20260258084A1, “New Peptides as Selective IL-23 Receptor Antagonists” (Sanofi, priority 2022, published 2026)
pIC50: −log10 of the molar value. Converted amounts (≈) assume the structure as drawn. Like-named read-outs stand apart in the source and are kept apart here. Starred links: 1 amine or outer side, 2 acyl side, 3 side chain; linkers in the order of their positions; H or OH if unused. Positions of bridges follow the written chain, without caps; N, C: chain ends. Non-standard residues stand in square brackets, D forms with d. Residues, ends and D or L forms follow the SMILES beside them. *: point of attachment. X3 = CN(CCCCC(=O)N[C@@H](CS[*:2])C(=O)[*:1])[*:3]; Trp(7-Me) = Cc1cccc2c(C[C@H](N)C(=O)O)c[nH]c12; 2Nal = N[C@@H](Cc1ccc2ccccc2c1)C(=O)O; AEF = NCCOc1ccc(C[C@H](N)C(=O)O)cc1; 3Pal = N[C@@H](Cc1cccnc1)C(=O)O; X4 = CN(CCCCCC(=O)[*:2])[*:1]; αMeL = CC(C)C[C@](C)(N)C(=O)O; Thp = NC1(C(=O)O)CCOCC1; Me2NCH2CH2 = CN(C)CC*; Aib = CC(C)(N)C(=O)O; Ava = NCCCCC(=O)O; βAla = NCCC(=O)O; Sar = CNCC(=O)O

Tests used:
[1] = tested on: IL-23 induced STAT3 signaling in HEK-Blue™ IL-23 cells; assay: IL-23 induced STAT3 signaling in HEK-Blue IL-23 cells (SEAP reporter); format: cell-based; conditions: human IL23 0.25 ng/ml, read-out: pSTAT3
Procedure, shortened: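 HEK-Blue IL-23 cells (10,000/well) pre-incubated 60 min at 37 °C with serially diluted peptides, then stimulated overnight with human IL-23 (0.25 ng/ml final). STAT3-driven SEAP in supernatant detected with QUANTI-Blue after 45 min at RT (OD 620-655 nm); dose-response curves fitted.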

[2] = Solubility testing of peptides at different pH; format: physicochemical; conditions: target concentration 1 mg/ml, 2 hours agitation
Procedure, shortened: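 Solid obtained by drying down DMSO stock was taken up at 1 mg/mL in 50 mM HCl pH 1.2 or 50 mM phosphate pH 6.5, 7.4 or 9.0, agitated gently for 2 h, then filtered (0.45 μm). Solubility by UPLC-UV peak area against a DMSO reference standard curve, corrected for extinction coefficients.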

[3] = Chemical stability assessment of peptides (relative purity loss); format: physicochemical; conditions: 24 hours at 37° C.; for Chemical stability (relative purity loss) Buffer pH 1.2: 50 mM HCl pH 1.2 + acetonitrile (1:1); for Chemical stability (relative purity loss) Buffer pH 6.5: 50 mM phosphate buffer pH 6.5 + acetonitrile (1:1); for Chemical stability (relative purity loss) Buffer pH 7.4: 50 mM phosphate buffer pH 7.4 + acetonitrile (1:1)
Procedure, shortened: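 Peptide solutions at 1 mg/ml (purity-corrected) in 1:1 acetonitrile with 50 mM HCl pH 1.2, or 50 mM phosphate pH 6.5 or pH 7.4, held 24 hours at 2° C. and 37° C. Supernatants analysed by UHPLC-UV; relative purity loss taken as percent drop in peak-area purity from 0 to 24 hours at 37° C.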

[4] = tested on: Pancreatin; assay: Protease stability in simulated intestinal fluid (Pancreatin-SIF, FaSSIF); format: in vitro ADME; conditions: 1 μM peptide, 37° C.; for remaining at 1 h, 1 µM: 60 min, read-out: FaSSIF 60 (min), remaining percent of peptide; for remaining at 2 h, 1 µM: 120 min, read-out: FaSSIF 120 (min), remaining percent of peptide; for remaining at 4 h, 1 µM: 240 min, read-out: FaSSIF 240 (min), remaining percent of peptide
Procedure, shortened: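 Peptide (1 μM final) was incubated at 37° C in simulated intestinal fluid containing pancreatin (1 mg per 10 mL SIF concentrate). Samples were quenched with ethanol/0.1% HCOOH at 0, 60, 120 and 240 min and analysed by LC-MS/MS. Percent remaining is the peak area relative to time 0 (100%).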

[5] = biological target: T1, human interleukin-23 receptor (recombinant human IL-23R-Fc chimera) (Homo sapiens, UniProt Q5VWK5); assay: Human ELISA IL23/IL23R (assay for specific human IL23R antagonists); format: binding; conditions: Table 10; read-out: Human ELISA IL23/IL23R IC50
T1 construct: Fc (IgG Fc fusion)
Procedure, shortened: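 Plates coated overnight at 4 °C with human IL23 ([…]), blocked, then serially diluted peptides added with recombinant human IL-23R-Fc (0.1 μg/ml final) for 60 min at room temperature. Bound receptor detected with anti-human IgG1-HRP and fluorogenic peroxidase substrate.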

[6] = 50 mM HCl buffer, 50 mM HCl pH 1.2, read-out: Solubility Buffer pH 1.2
[7] = 50 mM phosphate buffer pH 6.5, read-out: Solubility Buffer pH 6.5
[8] = 50 mM phosphate buffer pH 7.4, read-out: Solubility Buffer pH 7.4
[9] = 50 mM phosphate buffer pH 9.0, read-out: Solubility Buffer pH 9.0

| SMILES | solubility at 2 h [2, 6] [µg/mL] | solubility at 2 h [2, 7] [µg/mL] | solubility at 2 h [2, 8] [µg/mL] | solubility at 2 h [2, 9] [µg/mL] | Chemical stability (relative purity loss) Buffer pH 1.2 [3] [%] | Chemical stability (relative purity loss) Buffer pH 6.5 [3] [%] | Chemical stability (relative purity loss) Buffer pH 7.4 [3] [%] | remaining at 1 h, 1 µM [4] [%] | remaining at 2 h, 1 µM [4] [%] | remaining at 4 h, 1 µM [4] [%] | pIC50 [5] | pIC50 [1] |
| --- | --- | --- | --- | --- | --- | --- | --- | --- | --- | --- | --- | --- |
| CC(C)C[C@@H](NC(=O)[C@H](CC(N)=O)NC(=O)[C@@H]1CC(=O)N(C)CCCCCC(=O)N[C@H]2CSSC[C@H](NC(=O)[C@H](CCC(N)=O)NC(=O)[C@H](Cc3c[nH]c4ccccc34)NC(=O)[C@H]([C@@H](C)O)NC(=O)[C@H](CC(N)=O)NC2=O)C(=O)N[C@@H](Cc2ccc(OCCN(C)C)cc2)C(=O)N[C@@H](Cc2ccc3ccccc3c2)C(=O)N[C@@](C)(CC(C)C)C(=O)N1)C(N)=O [compound 40] ([X4]CNTWQCY(Me2NCH2CH2)[2Nal][αMeL]DN[dL]-NH2; disulfide 2-7; lactam N-11) | < 10 | < 10 | < 10 | < 10 | 8.3 | 1.3 | 3.0 | 77 | 70 | 54 | 9.00 | 7.29 |
| COc1ccc(C[C@@H]2NC(=O)[C@@H]3CSSC[C@H](NC(=O)CCCCNC(=O)CC[C@@H](C(=O)N[C@@H](CC(N)=O)C(=O)NCC(N)=O)NC(=O)C(C)(C)NC(=O)[C@H](Cc4ccc5ccccc5c4)NC2=O)C(=O)N[C@@H](CC(N)=O)C(=O)N[C@@H]([C@@H](C)O)C(=O)N[C@@H](Cc2c[nH]c4ccccc24)C(=O)N[C@@H](CCC(N)=O)C(=O)N3)cc1 [compound 4] ([Ava]CNTWQCY(Me)[2Nal][Aib]ENG-NH2; disulfide 2-7; lactam N-11) | 30 (≈ 18.8 µM) | 20 (≈ 12.6 µM) | 20 (≈ 12.6 µM) | 10 (≈ 6.28 µM) | 22.4 | 0.7 | 7.0 | 91 | 82 | 73 | 9.02 | 7.46 |
| CC(=O)NCCCC[C@@H]1NC(=O)[C@H](Cc2c[nH]c3c(C)cccc23)NC(=O)[C@H]([C@@H](C)O)NC(=O)[C@H](CC(N)=O)NC(=O)[C@@H]2CSSC[C@H](NC1=O)C(=O)N[C@@H](Cc1ccc(OCCN(C)C)cc1)C(=O)N[C@@H](Cc1ccc3ccccc3c1)C(=O)NC1(CCOCC1)C(=O)N[C@H](C(=O)N[C@@H](CC(N)=O)C(=O)N[C@@H](Cc1c[nH]cn1)C(=O)NCCC(N)=O)CCC(=O)NCCCCC(=O)N2 [compound 49] ([Ava]CNT[Trp(7-Me)]K(Ac)CY(Me2NCH2CH2)[2Nal][Thp]ENH[βAla]-NH2; disulfide 2-7; lactam N-11) | ≥ 1110 | ≥ 1090 | ≥ 1050 | ≥ 1040 | 11.6 | 1.2 | 1.4 | 85 | 75 | 74 | 9.48 | 8.75 |
| CC(=O)N[C@H]1CCCCNC(=O)[C@@H]2CSSC[C@H](NC(=O)[C@H](CCC(N)=O)NC(=O)[C@H](Cc3c[nH]c4ccccc34)NC1=O)C(=O)N[C@@H](Cc1ccc(OCCN)cc1)C(=O)N[C@@H](Cc1ccc3ccccc3c1)C(=O)NC1(CCOCC1)C(=O)N[C@H](C(=O)N[C@@H](CC(N)=O)C(=O)N[C@@H](CC(N)=O)C(N)=O)CCC(=O)N(C)CCCCC(=O)N2 [compound 13] (Ac-KWQC[AEF][2Nal][Thp]ENN-NH2; linker 1-4-8 via X3) | ≥ 1050 | ≥ 1070 | 770 (≈ 456 µM) | ≥ 990 | 23.3 | 0.2 | 1.6 | 83 | 70 | 54 | 9.21 | 7.50 |

Further molecules by rising pIC50 [5], results first:

| solubility at 2 h [2, 6] [µg/mL] | solubility at 2 h [2, 7] [µg/mL] | solubility at 2 h [2, 8] [µg/mL] | solubility at 2 h [2, 9] [µg/mL] | Chemical stability (relative purity loss) Buffer pH 1.2 [3] [%] | Chemical stability (relative purity loss) Buffer pH 6.5 [3] [%] | Chemical stability (relative purity loss) Buffer pH 7.4 [3] [%] | remaining at 1 h, 1 µM [4] [%] | remaining at 2 h, 1 µM [4] [%] | remaining at 4 h, 1 µM [4] [%] | pIC50 [5] | SMILES | pIC50 [1] |
| --- | --- | --- | --- | --- | --- | --- | --- | --- | --- | --- | --- | --- |
| ≥ 970 | ≥ 910 | 270 (≈ 164 µM) | 140 (≈ 85.1 µM) | 7.9 | 0.0 | 0.3 | 100 | 99 | 96 | 9.24 | CC(=O)N[C@H]1CCCCNC(=O)[C@@H]2CSSC[C@H](NC(=O)[C@H](CCC(N)=O)NC(=O)[C@H](Cc3c[nH]c4ccccc34)NC1=O)C(=O)N[C@@H](Cc1ccc(OCCN)cc1)C(=O)N[C@@H](Cc1ccc3ccccc3c1)C(=O)NC1(CCOCC1)C(=O)N[C@H](C(=O)N[C@@H](C)C(=O)N[C@H](CC(C)C)C(N)=O)CCC(=O)N(C)CCCCC(=O)N2 [compound 34] (Ac-KWQC[AEF][2Nal][Thp]EA[dL]-NH2; linker 1-4-8 via X3) | 7.88 |
| ≥ 1080 | ≥ 1060 | ≥ 1060 | ≥ 1030 | 9.9 | 1.9 | 1.8 | 89 | 82 | 81 | 9.44 | CC(=O)NCCCC[C@@H]1NC(=O)[C@H](Cc2c[nH]c3c(C)cccc23)NC(=O)[C@H]([C@@H](C)O)NC(=O)[C@H](CC(N)=O)NC(=O)[C@@H]2CSSC[C@H](NC1=O)C(=O)N[C@@H](Cc1ccc(OCCN(C)C)cc1)C(=O)N[C@@H](Cc1ccc3ccccc3c1)C(=O)NC1(CCOCC1)C(=O)N[C@H](C(=O)N[C@@H](CC(N)=O)C(=O)N[C@@H](Cc1c[nH]cn1)C(=O)N(C)CC(N)=O)CCC(=O)NCCCCC(=O)N2 [compound 46] ([Ava]CNT[Trp(7-Me)]K(Ac)CY(Me2NCH2CH2)[2Nal][Thp]ENH[Sar]-NH2; disulfide 2-7; lactam N-11) | 9.08 |
| ≥ 1020 | ≥ 930 | 430 (≈ 234 µM) | 100 (≈ 54.4 µM) | 17.1 | 0.2 | 0.7 | 92 | 86 | 78 | 9.72 | CC(=O)NCCCC[C@@H]1NC(=O)[C@H](Cc2c[nH]c3c(C)cccc23)NC(=O)[C@H]([C@@H](C)O)NC(=O)[C@H](CC(N)=O)NC(=O)[C@@H]2CSSC[C@H](NC1=O)C(=O)N[C@@H](Cc1ccc(OCCN(C)C)cc1)C(=O)N[C@@H](Cc1ccc3ccccc3c1)C(=O)NC1(CCOCC1)C(=O)N[C@H](C(=O)N[C@@H](CC(N)=O)C(=O)N[C@@H](Cc1cccnc1)C(N)=O)CCC(=O)NCCCCC(=O)N2 [compound 51] ([Ava]CNT[Trp(7-Me)]K(Ac)CY(Me2NCH2CH2)[2Nal][Thp]EN[3Pal]-NH2; disulfide 2-7; lactam N-11) | 10.30 |
